Experimental data as given in PubChem BioAssay (NCI).
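Dose response: 5 concentrations. Exposure: 48 h. Format: 96-well plates. Endpoint: linear interpolation; highest concentration if not reached. Abbreviation: GI50, concentration required for 50% inhibition of growth. TGI: concentration producing complete growth inhibition.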 The source made the active and inactive calls. Cut-off read from the data, not from the text of the source: active = GI50 below about 0.43 µM; inactive = the rest.

Tests used:
Test in all cases: NCI tumour cell line growth inhibition, 48 h
SW-620 colon = test system: SW-620 colon
NCI-H460 lung = test system: NCI-H460 lung
P388 leukemia = test system: P388 leukemia
K-562 leukemia = test system: K-562 leukemia
U251 CNS = test system: U251 CNS
RPMI-8226 leukemia = test system: RPMI-8226 leukemia
LOX IMVI melanoma = test system: LOX IMVI melanoma
KM12 colon = test system: KM12 colon
SF-539 CNS = test system: SF-539 CNS
SNB-19 CNS = test system: SNB-19 CNS
DLD-1 colon = test system: DLD-1 colon
SNB-75 CNS = test system: SNB-75 CNS
SK-MEL-28 melanoma = test system: SK-MEL-28 melanoma
UACC-62 melanoma = test system: UACC-62 melanoma
A498 renal = test system: A498 renal
MALME-3M melanoma = test system: MALME-3M melanoma
KM20L2 colon = test system: KM20L2 colon
DMS 273 small cell lung = test system: DMS 273 small cell lung
SK-MEL-2 melanoma = test system: SK-MEL-2 melanoma
HCC-2998 colon = test system: HCC-2998 colon
HCT-116 colon = test system: HCT-116 colon
HCT-15 colon = test system: HCT-15 colon
SK-MEL-5 melanoma = test system: SK-MEL-5 melanoma
HOP-92 NSCLC = test system: HOP-92 NSCLC
SN12K1 renal = test system: SN12K1 renal
IGROV1 ovarian = test system: IGROV1 ovarian
HOP-62 NSCLC = test system: HOP-62 NSCLC
DMS 114 small cell lung = test system: DMS 114 small cell lung
MCF7 breast = test system: MCF7 breast
A549 NSCLC = test system: A549 NSCLC
SF-295 CNS = test system: SF-295 CNS
EKVX NSCLC = test system: EKVX NSCLC
SN12C renal = test system: SN12C renal
NCI-H522 lung = test system: NCI-H522 lung
HT29 colon = test system: HT29 colon
UACC-257 melanoma = test system: UACC-257 melanoma
P388/ADR leukemia = test system: P388/ADR leukemia
NCI-H23 lung = test system: NCI-H23 lung
NCI/ADR-RES ovarian = test system: NCI/ADR-RES ovarian
SK-OV-3 ovarian = test system: SK-OV-3 ovarian
NCI-H226 lung = test system: NCI-H226 lung
OVCAR-8 ovarian = test system: OVCAR-8 ovarian
HOP-18 NSCLC = test system: HOP-18 NSCLC
OVCAR-3 ovarian = test system: OVCAR-3 ovarian
M19-MEL melanoma = test system: M19-MEL melanoma
UO-31 renal = test system: UO-31 renal
CCRF-CEM leukemia = test system: CCRF-CEM leukemia
RXF 393 renal = test system: RXF 393 renal
OVCAR-5 ovarian = test system: OVCAR-5 ovarian
SF-268 CNS = test system: SF-268 CNS
MOLT-4 leukemia = test system: MOLT-4 leukemia
OVCAR-4 ovarian = test system: OVCAR-4 ovarian
HL-60(TB) leukemia = test system: HL-60(TB) leukemia
CAKI-1 renal = test system: CAKI-1 renal
XF 498 CNS = test system: XF 498 CNS
COLO 205 colon = test system: COLO 205 colon
SNB-78 CNS = test system: SNB-78 CNS

C=Cc1ccccc1 (tested in a mixture with another compound)
GI50 (SW-620 colon): > 75 µg/mL
TGI (SW-620 colon): > 75 µg/mL
GI50 (NCI-H460 lung): > 75 µg/mL
TGI (NCI-H460 lung): > 75 µg/mL
GI50 (P388 leukemia): > 75 µg/mL
TGI (P388 leukemia): > 75 µg/mL
GI50 (K-562 leukemia): > 75 µg/mL
TGI (K-562 leukemia): > 75 µg/mL
GI50 (U251 CNS): > 75 µg/mL
TGI (U251 CNS): > 75 µg/mL
GI50 (RPMI-8226 leukemia): > 75 µg/mL
TGI (RPMI-8226 leukemia): > 75 µg/mL
GI50 (LOX IMVI melanoma): > 75 µg/mL
TGI (LOX IMVI melanoma): > 75 µg/mL
GI50 (KM12 colon): > 75 µg/mL
TGI (KM12 colon): > 75 µg/mL
GI50 (SF-539 CNS): > 75 µg/mL
TGI (SF-539 CNS): > 75 µg/mL
GI50 (SNB-19 CNS): > 75 µg/mL
TGI (SNB-19 CNS): > 75 µg/mL
GI50 (DLD-1 colon): > 75 µg/mL
TGI (DLD-1 colon): > 75 µg/mL
GI50 (SNB-75 CNS): 28.3 µg/mL
TGI (SNB-75 CNS): > 75 µg/mL
GI50 (SK-MEL-28 melanoma): > 75 µg/mL
TGI (SK-MEL-28 melanoma): > 75 µg/mL
GI50 (UACC-62 melanoma): > 75 µg/mL
TGI (UACC-62 melanoma): > 75 µg/mL
GI50 (A498 renal): > 75 µg/mL
TGI (A498 renal): > 75 µg/mL
GI50 (MALME-3M melanoma): > 75 µg/mL
TGI (MALME-3M melanoma): > 75 µg/mL
outcome (KM20L2 colon): inactive
GI50 (DMS 273 small cell lung): > 75 µg/mL
TGI (DMS 273 small cell lung): > 75 µg/mL
GI50 (SK-MEL-2 melanoma): > 75 µg/mL
TGI (SK-MEL-2 melanoma): > 75 µg/mL
GI50 (HCC-2998 colon): > 75 µg/mL
TGI (HCC-2998 colon): > 75 µg/mL
GI50 (HCT-116 colon): > 75 µg/mL
TGI (HCT-116 colon): > 75 µg/mL
GI50 (HCT-15 colon): > 75 µg/mL
TGI (HCT-15 colon): > 75 µg/mL
GI50 (SK-MEL-5 melanoma): > 75 µg/mL
TGI (SK-MEL-5 melanoma): > 75 µg/mL
GI50 (HOP-92 NSCLC): 59.5 µg/mL
TGI (HOP-92 NSCLC): > 75 µg/mL
GI50 (SN12K1 renal): > 75 µg/mL
TGI (SN12K1 renal): > 75 µg/mL
GI50 (IGROV1 ovarian): > 75 µg/mL
TGI (IGROV1 ovarian): > 75 µg/mL
GI50 (HOP-62 NSCLC): 48.4 µg/mL
TGI (HOP-62 NSCLC): > 75 µg/mL
GI50 (DMS 114 small cell lung): > 75 µg/mL
TGI (DMS 114 small cell lung): > 75 µg/mL
GI50 (MCF7 breast): > 75 µg/mL
TGI (MCF7 breast): > 75 µg/mL
GI50 (A549 NSCLC): > 75 µg/mL
TGI (A549 NSCLC): > 75 µg/mL
GI50 (SF-295 CNS): > 75 µg/mL
TGI (SF-295 CNS): > 75 µg/mL
GI50 (EKVX NSCLC): > 75 µg/mL
TGI (EKVX NSCLC): > 75 µg/mL
GI50 (SN12C renal): > 75 µg/mL
TGI (SN12C renal): > 75 µg/mL
GI50 (NCI-H522 lung): > 75 µg/mL
TGI (NCI-H522 lung): > 75 µg/mL
GI50 (HT29 colon): > 75 µg/mL
TGI (HT29 colon): > 75 µg/mL
GI50 (UACC-257 melanoma): > 75 µg/mL
TGI (UACC-257 melanoma): > 75 µg/mL
GI50 (P388/ADR leukemia): > 75 µg/mL
TGI (P388/ADR leukemia): > 75 µg/mL
GI50 (NCI-H23 lung): > 75 µg/mL
TGI (NCI-H23 lung): > 75 µg/mL
GI50 (NCI/ADR-RES ovarian): > 75 µg/mL
TGI (NCI/ADR-RES ovarian): > 75 µg/mL
GI50 (SK-OV-3 ovarian): > 75 µg/mL
TGI (SK-OV-3 ovarian): > 75 µg/mL
GI50 (NCI-H226 lung): > 75 µg/mL
TGI (NCI-H226 lung): > 75 µg/mL
GI50 (OVCAR-8 ovarian): 63.3 µg/mL
TGI (OVCAR-8 ovarian): > 75 µg/mL
outcome (HOP-18 NSCLC): inactive
GI50 (OVCAR-3 ovarian): > 75 µg/mL
TGI (OVCAR-3 ovarian): > 75 µg/mL
GI50 (M19-MEL melanoma): > 75 µg/mL
TGI (M19-MEL melanoma): > 75 µg/mL
GI50 (UO-31 renal): > 75 µg/mL
TGI (UO-31 renal): > 75 µg/mL
GI50 (CCRF-CEM leukemia): > 75 µg/mL
TGI (CCRF-CEM leukemia): > 75 µg/mL
GI50 (RXF 393 renal): > 75 µg/mL
TGI (RXF 393 renal): > 75 µg/mL
GI50 (OVCAR-5 ovarian): > 75 µg/mL
TGI (OVCAR-5 ovarian): > 75 µg/mL
GI50 (SF-268 CNS): > 75 µg/mL
TGI (SF-268 CNS): > 75 µg/mL
GI50 (MOLT-4 leukemia): > 75 µg/mL
TGI (MOLT-4 leukemia): > 75 µg/mL
GI50 (OVCAR-4 ovarian): > 75 µg/mL
TGI (OVCAR-4 ovarian): > 75 µg/mL
GI50 (HL-60(TB) leukemia): > 75 µg/mL
TGI (HL-60(TB) leukemia): > 75 µg/mL
GI50 (CAKI-1 renal): > 75 µg/mL
TGI (CAKI-1 renal): > 75 µg/mL
outcome (XF 498 CNS): inactive

C[C@H]1COC(c2ccccn2)=N1
TGI (SW-620 colon): > 100 µM
TGI (NCI-H460 lung): > 100 µM
TGI (P388 leukemia): > 100 µM
TGI (K-562 leukemia): > 100 µM
TGI (U251 CNS): > 100 µM
TGI (RPMI-8226 leukemia): > 100 µM
TGI (LOX IMVI melanoma): > 100 µM
TGI (KM12 colon): > 100 µM
TGI (SF-539 CNS): > 100 µM
TGI (SNB-19 CNS): > 100 µM
TGI (DLD-1 colon): > 100 µM
TGI (SNB-75 CNS): > 100 µM
TGI (SK-MEL-28 melanoma): > 100 µM
TGI (UACC-62 melanoma): > 100 µM
TGI (A498 renal): > 100 µM
TGI (MALME-3M melanoma): > 100 µM
TGI (COLO 205 colon): > 100 µM
TGI (KM20L2 colon): > 100 µM
TGI (DMS 273 small cell lung): > 100 µM
TGI (SK-MEL-2 melanoma): > 100 µM
TGI (HCC-2998 colon): > 100 µM
TGI (HCT-116 colon): > 100 µM
TGI (HCT-15 colon): > 100 µM
TGI (SK-MEL-5 melanoma): > 100 µM
TGI (HOP-92 NSCLC): > 100 µM
TGI (SN12K1 renal): > 100 µM
TGI (IGROV1 ovarian): > 100 µM
TGI (HOP-62 NSCLC): > 100 µM
TGI (MCF7 breast): > 100 µM
TGI (A549 NSCLC): > 100 µM
TGI (SF-295 CNS): > 100 µM
TGI (EKVX NSCLC): > 100 µM
TGI (SN12C renal): > 100 µM
TGI (NCI-H522 lung): > 100 µM
TGI (HT29 colon): > 100 µM
TGI (UACC-257 melanoma): > 100 µM
TGI (P388/ADR leukemia): > 100 µM
TGI (NCI-H23 lung): > 100 µM
TGI (NCI/ADR-RES ovarian): > 100 µM
TGI (SK-OV-3 ovarian): > 100 µM
TGI (NCI-H226 lung): > 100 µM
TGI (OVCAR-8 ovarian): > 100 µM
TGI (HOP-18 NSCLC): > 100 µM
TGI (OVCAR-3 ovarian): > 100 µM
TGI (M19-MEL melanoma): > 100 µM
TGI (UO-31 renal): > 100 µM
TGI (CCRF-CEM leukemia): > 100 µM
TGI (RXF 393 renal): > 100 µM
TGI (OVCAR-5 ovarian): > 100 µM
TGI (SF-268 CNS): > 100 µM
TGI (MOLT-4 leukemia): > 100 µM
TGI (OVCAR-4 ovarian): > 100 µM
TGI (HL-60(TB) leukemia): > 100 µM
TGI (SNB-78 CNS): > 100 µM
TGI (CAKI-1 renal): > 100 µM
TGI (XF 498 CNS): > 100 µM
